From article PMC449707 (BMC Pharmacology, 2004)

Tested on: whole bone marrow cells
Test: Fibroblastic colony forming unit
Type: cell-based, rat
Details: for effect on colony number of co-treatment with exogenous PGE2: 10 μM PDE inhibitor plus PGE2 as low as 0.1 nM; for effect on colony number, agent alone: 10 μM, CFU-f assay, no exogenous PGE2

Structure (SMILES)	effect on colony number of co-treatment with exogenous PGE2	effect on colony number, agent alone
CC(C)Cn1c(=O)n(C)c(=O)c2[nH]cnc21 [IBMX, isobutylmethylxanthine]	almost maximal responses	significant stimulation in colony number
COc1ccc(C2CNC(=O)C2)cc1OC1CCCC1 (stereo not shown) [rolipram]	almost maximal responses	significant stimulation in colony number
